Legend:
[1] = target: factor Xa, human (Homo sapiens, UniProt P00742); test: Inhibition of factor Xa (table title: Affinity to receptors); assay type: biochemical
Excerpt: The inhibition of factor Xa by the compounds according to the invention and the measurement of the anticoagulant and antithrombotic activity can be determined by conventional in-vitro or in-vivo methods. A suitable method is described, for example, by J. Hauptmann et al. in Thrombosis and Haemostasis 1990, 63, 220-223.
The inhibition of factor Xa can be measured, for example, by the method of T. Hara et al. in Thromb. Haemostas. 1994, 71, 314-319.

[2] = target: TF/VIIa (Homo sapiens, UniProt P08709); test: Inhibition of TF/VIIa (table title: Affinity to receptors); assay type: biochemical
Sequence of TF/VIIa (P08709 213-466 limits assumed): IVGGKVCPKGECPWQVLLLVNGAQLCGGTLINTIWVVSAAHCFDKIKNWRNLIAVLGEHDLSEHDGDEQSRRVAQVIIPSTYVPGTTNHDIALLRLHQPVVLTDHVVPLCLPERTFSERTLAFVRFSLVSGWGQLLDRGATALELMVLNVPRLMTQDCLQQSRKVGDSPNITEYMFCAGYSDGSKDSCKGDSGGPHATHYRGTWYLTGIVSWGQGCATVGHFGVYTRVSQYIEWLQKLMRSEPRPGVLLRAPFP
Sequence of TF/VIIa (P08709 61-212 limits assumed): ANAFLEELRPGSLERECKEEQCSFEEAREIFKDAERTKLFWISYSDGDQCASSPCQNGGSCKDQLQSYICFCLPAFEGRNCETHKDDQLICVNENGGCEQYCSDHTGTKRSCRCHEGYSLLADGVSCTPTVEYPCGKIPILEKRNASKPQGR
Sequence of TF/VIIa (P13726 33-295 partner): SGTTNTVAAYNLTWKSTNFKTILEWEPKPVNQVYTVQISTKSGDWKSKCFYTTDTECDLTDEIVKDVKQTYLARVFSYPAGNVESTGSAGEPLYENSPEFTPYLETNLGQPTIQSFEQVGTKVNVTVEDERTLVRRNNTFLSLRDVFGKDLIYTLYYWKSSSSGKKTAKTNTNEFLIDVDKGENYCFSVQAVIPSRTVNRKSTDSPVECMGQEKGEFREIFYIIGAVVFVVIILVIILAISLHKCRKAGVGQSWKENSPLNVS
Excerpt: The inhibition of factor VIIa by the compounds according to the invention and the measurement of the anticoagulant and antithrombotic activity can be determined by conventional in-vitro or in-vivo methods. A conventional method for the measurement of the inhibition of factor VIIa is described, for example, by H. F. Ronning et al. in Thrombosis Research 1996, 84, 73-81.

Sequence of factor Xa, human (P00742 235-488 limits assumed): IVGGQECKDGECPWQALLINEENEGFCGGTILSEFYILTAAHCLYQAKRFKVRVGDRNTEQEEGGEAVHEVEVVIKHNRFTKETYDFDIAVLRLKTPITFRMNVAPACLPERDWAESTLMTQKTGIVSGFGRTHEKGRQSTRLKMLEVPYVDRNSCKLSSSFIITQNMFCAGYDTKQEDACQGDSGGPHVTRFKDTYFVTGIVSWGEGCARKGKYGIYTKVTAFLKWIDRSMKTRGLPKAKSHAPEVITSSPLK
Sequence of factor Xa, human (P00742 41-179 limits assumed): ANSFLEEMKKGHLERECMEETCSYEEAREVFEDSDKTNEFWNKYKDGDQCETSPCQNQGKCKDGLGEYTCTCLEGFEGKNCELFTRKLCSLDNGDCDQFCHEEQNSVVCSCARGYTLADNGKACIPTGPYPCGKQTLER

SMILES | IC50 [1] [nM] | IC50 [2] [nM]
CC(C)CN(CC(=O)Nc1ccc(-c2ccccc2S(N)(=O)=O)cc1)c1cccc(C(=N)N)c1 [N-(2′-aminosulfonylbiphenyl-4-yl)-2-[(3-amidinophenyl)-N-isobutylamino]acetamide] | 480 | 370
CCCN(CC(=O)Nc1ccc(-c2ccccc2S(N)(=O)=O)cc1)c1cccc(C(=N)N)c1 [N-(2′-aminosulfonylbiphenyl-4-yl)-2-[(3-amidinophenyl)-N-propylamino]acetamide] | 130 | 44
CCCN(CC(=O)Nc1ccc(-c2ccccc2S(C)(=O)=O)cc1)c1cccc(C(=N)N)c1 [N-(2′-methylsulfonylbiphenyl-4-yl)-2-[(3-amidinophenyl)-N-propylamino]acetamide] | 120 | 31

Now those with a lower IC50 [1], led by results:

IC50 [1] [nM] | IC50 [2] [nM] | SMILES
81 | 15 | N=C(N)c1cccc(N(CC(=O)Nc2ccc(-c3ccccc3S(N)(=O)=O)cc2)Cc2ccccc2)c1 [N-(2′-aminosulfonylbiphenyl-4-yl)-2-[(3-amidinophenyl)-N-benzylamino]acetamide]
10 | 25 | CN(CC(=O)Nc1ccc(-c2ccccc2S(N)(=O)=O)cc1)c1cccc(C(=N)N)c1 [N-(2′-aminosulfonylbiphenyl-4-yl)-2-[(3-amidinophenyl)-N-methylamino]acetamide]
